Experimental data from US20210355106A1, “NEW AMINO-PYRIMIDONYL-PIPERIDINYL DERIVATIVES, A PROCESS FOR THEIR PREPARATION AND PHARMACEUTICAL COMPOSITIONS CONTAINING THEM” (LES LABORATOIRES SERVIER, priority 2018, published 2021).
“And” between values parts separate entries of the source, which are not always exact repeats. Equal entries are not always repeated.

Assays:
[1] = test system: Z138 mantle cell lymphoma tumour cell lines; assay: In vitro cytotoxicity, MTT assay; format: cell-based; conditions: Homo sapiens, Z-138; Z138 cells, exposed to the test compounds for 96 hours
In short: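 Z138 cells exposed to compounds for 96 hours, then MTT added for 4 hours. Formazan absorbance at 540 nm serves as the measure of viable cell number.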

[2] = molecular target: T1, USP7 (Homo sapiens, UniProt Q93009, C315A); assay: Inhibition of USP7 by Fluorescence Intensity (FLINT) readings, Ubiquitin-Rhodamine-110 substrate; format: biochemical; conditions: 0.25 nM His-His-USP7 (aa208-560), 60 minutes at 30° C. preincubation; Ki determined from IC50 according to Cer et al.
T1 construct: 0.25 nM His-His-USP7 (aa208-560, |C315A|) was incubated with compound; His-His (N)
In short: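 His-tagged USP7 (aa208-560, C315A), 0.25 nM, preincubated with compound 60 min at 30 °C in 100 mM Bicine pH 8.0, 0.01% Triton X-100, 1 mM TCEP, 10% DMSO. Ubiquitin-Rhodamine-110 (50 nM or 4 μM) added; kinetic fluorescence (Ex 485/Em 535 nm) over 21 min; IC50 from 11-point curves, Ki derived from IC50.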

T1 sequence (Q93009 208-560 C315A): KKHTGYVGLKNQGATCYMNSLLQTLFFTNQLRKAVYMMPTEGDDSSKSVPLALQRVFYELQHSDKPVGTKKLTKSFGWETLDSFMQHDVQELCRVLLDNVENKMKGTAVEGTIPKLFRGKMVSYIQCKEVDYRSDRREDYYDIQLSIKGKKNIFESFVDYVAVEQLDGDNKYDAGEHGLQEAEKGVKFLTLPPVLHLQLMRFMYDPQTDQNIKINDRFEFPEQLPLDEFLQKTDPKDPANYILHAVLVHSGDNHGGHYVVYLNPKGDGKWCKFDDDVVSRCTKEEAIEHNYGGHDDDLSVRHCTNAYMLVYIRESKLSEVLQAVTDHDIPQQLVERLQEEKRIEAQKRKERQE

Ki [2]	SMILES	IC50 [1]
42.6 nM	COc1cc(Oc2ncn(C[C@@]3(O)CCN(C(=O)[C@@H]4CCN(Cc5nc(C)cc(C)n5)C[C@H]4c4ccccc4)CC3(F)F)c(=O)c2N)ccc1F [Example 217]	23.1 nM
6.48 nM and 5.16 nM	Cc1ccc(-c2cc(CN3CC[C@@H](C(=O)N4CC[C@](O)(Cn5cnc(Oc6ccc(F)cc6)c(N)c5=O)C(F)(F)C4)[C@H](c4ccccc4)C3)ncn2)cn1 [Example 164, 5-amino-3-[[(4S)-3,3-difluoro-4-hydroxy-1-[(3R,4R)-1-[[6-(6-methyl-3-pyridyl)pyrimidin-4-yl}methyl]-3-phenyl-piperidine-4-carbonyl]-4-piperidyl]methyl]-6-(4-fluorophenoxy)pyrimidin-4-one]	1.83 nM
10.7 nM	Cc1nc(C2CCCCC2)sc1C(=O)N1CC[C@@H](C(=O)N2CCC(O)(Cn3cnc(Oc4ccc(F)cc4)c(N)c3=O)CC2)[C@H](c2ccccc2)C1 [Example 158]	5.24 nM
7.98 nM	Cc1nc(-c2ccc(C(F)(F)F)nc2)sc1C(=O)N1CC[C@@H](C(=O)N2CCC(O)(Cn3cnc(Oc4cccc(C(F)(F)F)c4)c(N)c3=O)CC2)[C@H](c2ccccc2)C1 [Example 125, 5-amino-3-[[4-hydroxy-1-[(3R,4R)-1-[4-methyl-2-[6-(trifluoromethyl)-3-pyridyl]thiazole-5-carbonyl]-3-phenyl-piperidine-4-carbonyl]-4-piperidyl]methyl]-6-[3-(trifluoromethyl)phenoxy]pyrimidin-4-one]	26.6 nM
63 nM	Nc1c(Oc2ccc(F)cc2)ncn(CC2(O)CCN(C(=O)[C@@H]3CCN(C4(c5ccccc5)COC4)C[C@H]3c3ccccc3)CC2)c1=O [Example 108, 5-amino-6-(4-fluorophenoxy)-3-[[4-hydroxy-1-((3R,4R)-3-phenyl-1-(3-phenyloxetan-3-yl)piperidine-4-carbonyl]-4-piperidyl]methyl]pyrimidin-4-one]	50 nM
18.1 nM	Cc1nc(-c2ccc(F)cc2)sc1C(=O)N1CC[C@@H](C(=O)N2CC[C@](O)(Cn3cnc(Oc4ccc(F)cc4)c(N)c3=O)C(F)(F)C2)[C@H](c2ccccc2)C1 [Example 44]	7.4 nM
44 nM	Nc1c(Oc2ccc(F)cc2)ncn(CC2(O)CCN(C(=O)[C@@H]3CCN(C(=O)Nc4cccc(C(F)(F)F)c4)C[C@H]3c3ccccc3)CC2)c1=O [Example 81, (3R,4R)-4-(4-{15-amino-4-(4-fluorophenoxy)-6-oxopyrimidin-[(6H)-yl]methyl}-4-hydroxypiperidine-1-carbonyl)-3-phenyl-N-[3-(trifluoromethyl)phenyl]piperidine-1-carboxamide]	5.1 nM
8.8 nM	Cc1nc(C2CCOCC2)sc1C(=O)N1CC[C@@H](C(=O)N2CC[C@](O)(Cn3cnc(Oc4ccc(F)cc4)c(N)c3=O)C(F)(F)C2)[C@H](c2ccccc2)C1 [Example 192, 5-amino-3-[[(4S)-3,3-difluoro-4-hydroxy-1-[(3R,4R)-1-(4-methyl-2-tetrahydropyran-4-yl-thiazole-5-carbonyl)-3-phenyl-piperidine-4-carbonyl]-4-piperidyl]methyl]-6-(4-fluorophenoxy)pyrimidin-4-one]	8.48 nM
1.52 nM	Nc1c(Oc2ccc(F)cc2)ncn(CC2(O)CCN(C(=O)[C@@H]3CCN(C(=O)c4cncc(Cl)c4)C[C@H]3c3ccccc3)CC2)c1=O [Example 133, 5-amino-3-[[1-[(3R,4R)-1-(5-chloropyridine-3-carbonyl)-3-phenyl-piperidine-4-carbonyl]-4-hydroxy-4-piperidyl]methyl]-6-(4-fluorophenoxy)pyrimidin-4-one]	9.8 nM
30 nM	Cc1nccc(CN2CC[C@@H](C(=O)N3CCC(O)(Cn4cnc(Oc5ccc(CO)cc5)c(N)c4=O)CC3)[C@H](c3ccccc3)C2)n1 [Example 200]	106 nM
12 nM	Nc1c(Oc2ccc(F)cc2)ncn(CC2(O)CCN(C(=O)[C@@H]3CCN(C4(c5ccccc5Cl)COC4)C[C@H]3c3ccccc3)CC2)c1=O [Example 140, 5-amino-3-[[1-((3R,4R)-1-[3-(2-chlorophenyl)oxetan-3-yl]-3-phenyl-piperidine-4-carbonyl]-4-hydroxy-4-piperidyl]methyl]-6-(4-fluorophenoxy)pyrimidin-4-one]	20 nM
7.9 nM	Cc1nc(Cc2ccccc2)sc1C(=O)N1CC[C@@H](C(=O)N2CCC(O)(Cn3cnc(Oc4ccc(F)cc4)c(N)c3=O)CC2)[C@H](c2ccccc2)C1 [Example 61, 5-amine-3-({1-[(3R,4R)-1-(2-benzyl-4-methyl-1,3-thiazole-5-carbonyl)-3-phenylpiperidine-4-carbonyl]-4-hydroxypiperidin-4-yl)methyl)-6-(4-fluorophenoxy)pyrimidin-4(3H)-one]	17 nM
7.77 nM	Nc1c(Oc2ccc(F)cc2)ncn(CC2(O)CCN(C(=O)[C@@H]3CCN(C(=O)c4cncc(Br)c4)C[C@H]3c3ccccc3)CC2)c1=O [Example 33, 5-amino-3-({1-[(3R,4R)-1-(5-bromopyridine-3-carbonyl)-3-phenylpiperidine-4-carbonyl]-4-hydroxypiperidin-4-yl}methyl)-6-(4-fluorophenoxy)pyrimidin-4(3)-one]	2.55 nM
56 nM	Nc1c(Oc2cccc(C(F)(F)F)c2)ncn(CC2(O)CCN(C(=O)[C@@H]3CCN(C(=O)c4sc(I)cc4F)C[C@H]3c3ccccc3)CC2)c1=O [Example 99, 5-amino-3-[[1-((3R,4R)-1-(3-fluoro-5-iodo-thiophene-2-carbonyl)-3-phenyl-piperidine-4-carbonyl]-4-hydroxy-4-piperidyl]methyl]-6-[3-(trifluoromethyl)phenoxy]pyrimidin-4-one]	120 nM
36.4 nM	COc1cc(Oc2ncn(C[C@@]3(O)CCN(C(=O)[C@@H]4CCN(Cc5cnccn5)C[C@H]4c4ccccc4)CC3(F)F)c(=O)c2N)ccc1F [Example 213, 5-amino-3-[[(4S)-3,3-difluoro-4-hydroxy-1-[(3R,4R)-3-phenyl-1-(pyrazin-2-ylmethyl)piperidine-4-carbonyl]-4-piperidyl]methyl]-6-(4-fluoro-3-methoxy-phenoxy)pyrimidin-4-one]	15.6 nM
63 nM	CCOC(=O)C(c1ccccc1)N1CC[C@@H](C(=O)N2CCC(O)(Cn3cnc(Oc4ccc(F)cc4)c(N)c3=O)CC2)[C@H](c2ccccc2)C1 (some centres unmarked) [Example 70]	34 nM
0.064 nM	Cc1ccc(-c2nc(C)c(C(=O)N3CC[C@@H](C(=O)N4CCC(O)(Cn5cnc(Oc6ccc(CN)cc6)c(N)c5=O)CC4)[C@H](c4ccccc4)C3)s2)cn1 [Example 131]	5.3 nM
35.8 nM	Cc1ccnc(CN2CC[C@@H](C(=O)N3CC[C@](O)(Cn4cnc(Oc5ccc(F)cc5)c(N)c4=O)C(F)(F)C3)[C@H](c3ccccc3)C2)n1 [Example 205]	23.5 nM
5.58 nM	COc1cc(Oc2ncn(C[C@@]3(O)CCN(C(=O)[C@@H]4CCN(C(=O)c5sc(-c6ccc(C)nc6)nc5C)C[C@H]4c4ccccc4)CC3(F)F)c(=O)c2N)ccc1F [Example 179]	1.34 nM
11.3 nM	Nc1c(Oc2ccc(F)cc2)ncn(CC2(O)CCN(C(=O)[C@@H]3CCN(C(=O)c4cncc(-c5ccccc5)c4)C[C@H]3c3ccccc3)CC2)c1=O [Example 35, 5-amino-6-(4-fluorophenoxy)-3-({4-hydroxy-1-[(3R,4R)-3-phenyl-1-(5-phenylpyridine-3-carbonyl)piperidine-4-carbonyl]piperidin-4-yl}methyl)pyrimidin-4(3H)-one]	5 nM
14 nM	COc1cc(Oc2ncn(C[C@@]3(O)CCN(C(=O)[C@@H]4CCN(Cc5ccnc(C)n5)C[C@H]4c4ccccc4)CC3(F)F)c(=O)c2N)ccc1F [Example 149]	24.1 nM
48.3 nM	COc1cc(Oc2ncn(C[C@@]3(O)CCN(C(=O)[C@@H]4CCN(Cc5cccnn5)C[C@H]4c4ccccc4)CC3(F)F)c(=O)c2N)ccc1F [Example 214]	31.3 nM
